{
  "source": "paper PMC7411736",
  "about": "“Effects of Sesamin, the Major Furofuran Lignan of Sesame Oil, on the Amplitude and Gating of Voltage-Gated Na^+ and K^+ Currents” (Molecules, 2020)",
  "key": {"[1]": {"test_system": "voltage-gated Na+ currents (INa) in pituitary GH3 cells", "assay": "Whole-cell patch-clamp of voltage-gated Na+ current evoked by depolarization from −80 to −10 mV", "format": "cell-based, rat", "conditions": "for Effect on SSM-induced inhibition of peak INa: 10 μM added in continued presence of SSM (3 μM); for IC50: GH3 cells, depolarization −80 to −10 mV", "method": "In an initial step of the experiments, we examined the effects of SSM on the amplitude and gating of INa in response to rapid membrane depolarization. Cells were bathed in Ca^2+-free Tyrode’s solution containing 10 mM tetraethylammonium chloride (TEA) and the recording pipette was backfilled with a Cs^+-containing solution. […] For example, when rapid membrane depolarization from −80 to −10 mV with a duration of 40 msec was delivered (indicated in the inset of Figure 1A) to evoke INa, the addition of 3 μM SSM caused a decrease in the peak or sustained amplitude of INa to 139 ± 11 pA (n = 11, P < 0.05) or 12 ± 3 pA (n = 11, P < 0.05), respectively, from the control values of 248 ± 18 or 21 ± 2 pA (n = 11). After the removal of SSM, the peak and sustained amplitude returned to 232 ± 16 or 19 ± 2 pA (n = 7, P < 0.05).\nThe bath solution (i.e., a HEPES-buffered normal Tyrode’s solution) utilized in the present study was composed of 136 mM NaCl, 5.4 mM KCl, 1.8 mM CaCl2, 0.53 mM MgCl2, 5.5 mM glucose, and 5.5 mM HEPES titrated with NaOH to pH 7.4. To measure macroscopic IK(DR) and Ih, we filled patch pipettes by using a solution containing 130 mM K-aspartate, 20 mM KCl, 1 mM KH2PO4, 1 mM MgCl2, 3 mM Na2ATP, 0.1 mM Na2GTP, 0.1 mM EGTA, and 5 mM HEPES adjusted with KOH to pH 7.2. To record INa and INa(R), we substituted K^+ ions in the pipette solution inside the electrode for equmolar Cs^+ ions and the pH value in the solution was adjusted to 7.2 with CsOH. To measure IK(erg) and IK(M), cells were bathed in a high-K^+ solution containing 145 mM KCl, 0.53 mM MgCl2, and 5 mM HEPES-KOH buffer, pH 7.4. All solutions were prepared using deionized water from a Millipore Milli-Q purification system (ρ = 18 MΩ·cm) (Merck, Ltd., Taipei, Taiwan). The pipette solution and culture medium were filtered on the day of use with a sterile Acrodisc® syringe filter with a 0.2-μm Supor® membrane (Bio-Check; New Taipei City, Taiwan).\nThe pituitary adenomatous cell line, GH3, was acquired from the Bioresource Collection and Research Center ((BCRC-60015, https://catalog.bcrc.firdi.org.tw/BcrcContent?bid=60015); Hsinchu, Taiwan). Cells were maintained in Ham’s F-12 medium supplemented with 2.5% fetal bovine serum (v/v), 15% horse serum (v/v), and 2 mM L-glutamine in a humidified environment of 5% CO2/95% air. When well differentiated, GH3 cells were transferred to a serum- and Ca^2+-free medium. Electrical recordings were performed 5 or 6 days after cells were cultured with 60–80% confluence.\nOn the day of each experiment, cells were dispersed with a 1% trypsin/EDTA solution and a few drops of cell suspension were rapidly placed in a custom-built recording chamber mounted on the stage of an inverted DM-IL microscope (Leica; Major Instruments, Kaohsiung, Taiwan). They were immersed at room temperature (20–25 °C) in normal Tyrode’s solution, the composition of which is elaborated above. We measured ion currents in the whole-cell model of a standard patch-clamp technique with dynamic adaptive suctioning (i.e., decremental change of suction pressure in response to a progressive increase in the electrode resistance), with the aid of an RK-400 (Bio-Logic, Claix, France) or an Axopatch-200B (Molecular Devices, Sunnyvale, CA) patch amplifier. The microelectrodes used were prepared from Kimax-51 borosilicate capillaries with a 1.5-mm outer diameter (#34500; Kimble; Dogger, New Taipei City, Taiwan) by using a PP-830 vertical puller (Narishige, Taiwan Instrument, Taipei, Taiwan). The recording electrodes had their tip resistances, which ranged between 3 and 5 MΩ, as they were filled up with the different internal solutions elaborated above. During the measurements, the recorded area on the vibration-free table was shielded by using a Faraday cage (Scitech, Seoul, South Korea). […]"}, "[2]": {"test_system": "hyperpolarization-activated cation currents (Ih) in GH3 cells", "assay": "Whole-cell patch-clamp of hyperpolarization-activated cation current (−40 to −110 mV)", "format": "cell-based, rat", "method": "In the following experiments, we further studied whether the presence of SSM could perturb another type of inwardly directed current, i.e., Ih. Cells were exposed to Ca^2+-free Tyrode’s solution containing 1 μM TTX and the pipette was filled with K^+-containing solution. As the hyperpolarizing command pulse from −40 to −110 mV with a duration of 2 sec was delivered, Ih with a slowly activating property was robustly evoked, as observed previously. […] Cilobradine has recently been reported to decrease Ih amplitude, as well as to alter activation kinetics present in different types of excitable cells.\nThe bath solution (i.e., a HEPES-buffered normal Tyrode’s solution) utilized in the present study was composed of 136 mM NaCl, 5.4 mM KCl, 1.8 mM CaCl2, 0.53 mM MgCl2, 5.5 mM glucose, and 5.5 mM HEPES titrated with NaOH to pH 7.4. To measure macroscopic IK(DR) and Ih, we filled patch pipettes by using a solution containing 130 mM K-aspartate, 20 mM KCl, 1 mM KH2PO4, 1 mM MgCl2, 3 mM Na2ATP, 0.1 mM Na2GTP, 0.1 mM EGTA, and 5 mM HEPES adjusted with KOH to pH 7.2. To record INa and INa(R), we substituted K^+ ions in the pipette solution inside the electrode for equmolar Cs^+ ions and the pH value in the solution was adjusted to 7.2 with CsOH. […]\nOn the day of each experiment, cells were dispersed with a 1% trypsin/EDTA solution and a few drops of cell suspension were rapidly placed in a custom-built recording chamber mounted on the stage of an inverted DM-IL microscope (Leica; Major Instruments, Kaohsiung, Taiwan). […] We measured ion currents in the whole-cell model of a standard patch-clamp technique with dynamic adaptive suctioning (i.e., decremental change of suction pressure in response to a progressive increase in the electrode resistance), with the aid of an RK-400 (Bio-Logic, Claix, France) or an Axopatch-200B (Molecular Devices, Sunnyvale, CA) patch amplifier. […] During the measurements, the recorded area on the vibration-free table was shielded by using a Faraday cage (Scitech, Seoul, South Korea). […]"}},
  "note": "Like-named read-outs stand apart in the source and are kept apart here.",
  "data": [
    {"smiles": "Cc1c(F)c(F)c(COC(=O)[C@@H]2[C@H](/C=C(\\Cl)C(F)(F)F)C2(C)C)c(F)c1F", "note": "(racemic) [tefluthrin, reference compound]", "values": [
      {"measurement": "Effect on SSM-induced inhibition of peak INa", "setting": "[1]", "result": "effective in reversing"}
    ]},
    {"smiles": "c1cc2c(cc1O[C@H]1OC[C@H]3[C@@H]1CO[C@@H]3c1ccc3c(c1)OCO3)OCO2", "note": "[SesA, 5-[(1S,3aR,4R,6aR)-4-(1,3-benzodioxol-5-yloxy)tetrahydro-1H,3H-furo[3,4-c]furan-1-yl]-1,3-benzodioxole]", "values": [
      {"measurement": "Effect on peak amplitude of INa", "setting": "[1]; 3 μM, −80 to −10 mV (Figure 2)", "result": "produced inhibitory effects"},
      {"measurement": "IC50", "setting": "[1]; amplitude at beginning of pulse, read-out: IC50 for decrease of peak INa", "result": 9.8, "unit": "µM"},
      {"measurement": "IC50", "setting": "[1]; amplitude at end of pulse, read-out: IC50 for decrease of sustained INa", "result": 2.5, "unit": "µM"},
      {"measurement": "Effect on Ih amplitude", "setting": "[2]; 10 μM", "result": "minimal effect"}
    ]},
    {"smiles": "COc1ccc(CCN2CCC[C@H](CN3CCc4cc(OC)c(OC)cc4CC3=O)C2)cc1OC", "note": "[cilobradine, reference compound]", "values": [
      {"measurement": "Effect on Ih amplitude", "setting": "[2]; 3 or 10 μM added in continued presence of SSM (10 μM)", "result": "highly effective at inhibiting"}
    ]},
    {"smiles": "CCCc1nc2c(C)cc(-c3nc4ccccc4n3C)cc2n1Cc1ccc(-c2ccccc2C(=O)O)cc1", "note": "[telmisartan, reference compound]", "values": [
      {"measurement": "Effect on SSM-induced inhibition of peak INa", "setting": "[1]", "result": "effective in reversing"}
    ]}
  ]
}
